# Assay results as given in patent US9738655B2, “Tetrahydroisoquinolines containing substituted azoles as factor XIa inhibitors” (BRISTOL-MYERS SQUIBB COMPANY, priority 2013, dated 2017).
# Structures can show the parent of a compound that is named as a salt. Where two headings read alike, the source gives them in different places.
# Experiments:
# [1] = biological target: purified human Factor XIa (Homo sapiens (Human), UniProt P03951); assay: Factor XIa enzyme inhibition assay (chromogenic substrate S-2366)
# purified human Factor XIa, sequence (P03951 388-625): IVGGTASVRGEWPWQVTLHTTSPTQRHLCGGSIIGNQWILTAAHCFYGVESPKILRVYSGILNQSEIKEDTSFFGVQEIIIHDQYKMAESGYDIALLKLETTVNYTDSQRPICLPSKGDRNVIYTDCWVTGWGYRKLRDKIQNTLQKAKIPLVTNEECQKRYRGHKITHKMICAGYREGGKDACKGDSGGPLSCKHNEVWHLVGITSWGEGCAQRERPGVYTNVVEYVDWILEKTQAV
# purified human Factor XIa, sequence (P03951 19-387 partner): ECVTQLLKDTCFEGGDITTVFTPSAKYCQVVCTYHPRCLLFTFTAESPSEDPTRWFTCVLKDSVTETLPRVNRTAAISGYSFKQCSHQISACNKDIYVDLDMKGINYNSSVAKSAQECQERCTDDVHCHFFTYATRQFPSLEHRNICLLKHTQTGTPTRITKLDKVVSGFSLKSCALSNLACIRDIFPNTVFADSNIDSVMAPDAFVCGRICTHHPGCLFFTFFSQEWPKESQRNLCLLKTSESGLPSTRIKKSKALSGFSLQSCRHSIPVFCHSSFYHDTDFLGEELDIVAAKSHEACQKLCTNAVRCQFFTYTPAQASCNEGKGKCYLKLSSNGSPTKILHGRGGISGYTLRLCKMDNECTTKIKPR
# [2] = biological target: purified human plasma kallikrein (Homo sapiens (Human), UniProt P03952); assay: Plasma kallikrein enzyme inhibition assay (chromogenic substrate S-2302); format: biochemical; conditions: measured at 25° C. (no asterisk)
# purified human plasma kallikrein, sequence (P03952 391-638): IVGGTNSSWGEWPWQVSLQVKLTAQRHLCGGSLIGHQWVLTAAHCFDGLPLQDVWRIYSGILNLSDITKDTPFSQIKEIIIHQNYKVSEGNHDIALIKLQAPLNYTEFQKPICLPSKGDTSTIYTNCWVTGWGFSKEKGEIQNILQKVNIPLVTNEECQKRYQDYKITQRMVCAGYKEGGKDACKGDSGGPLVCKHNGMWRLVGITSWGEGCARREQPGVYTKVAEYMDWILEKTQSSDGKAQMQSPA
# purified human plasma kallikrein, sequence (P03952 20-390 partner): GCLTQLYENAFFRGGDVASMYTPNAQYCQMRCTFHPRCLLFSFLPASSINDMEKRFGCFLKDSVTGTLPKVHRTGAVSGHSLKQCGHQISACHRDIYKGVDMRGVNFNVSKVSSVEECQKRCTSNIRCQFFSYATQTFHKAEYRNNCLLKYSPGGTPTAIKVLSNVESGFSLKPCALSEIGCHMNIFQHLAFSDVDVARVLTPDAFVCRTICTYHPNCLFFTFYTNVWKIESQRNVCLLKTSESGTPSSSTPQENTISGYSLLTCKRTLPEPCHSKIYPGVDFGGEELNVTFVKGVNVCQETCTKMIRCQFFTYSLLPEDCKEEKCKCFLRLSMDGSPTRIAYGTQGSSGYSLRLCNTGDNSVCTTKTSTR
# [3] = read-out: Factor XIa Ki, measured at 25° C.
"Ki [1, 3] [nM]",Ki [2] [nM],Ki [1] [nM],Compound
< 5,0.96,–,"CN(C)C1CCN(c2cccc3c2CCN(C(=O)c2cn(-c4cccc(Cl)c4F)nn2)[C@@H]3C(=O)Nc2ccc(-c3cn[nH]c3)cc2)CC1 [Example 104, (S)-N-(4-(1H-Pyrazol-4-yl)phenyl)-2-(1-(3-chloro-2-fluorophenyl)-1H-1,2,3-triazole-4-carbonyl)-5-(4-(dimethylamino)piperidin-1-yl)-1,2,3,4-tetrahydroisoquinoline-1-carboxamide, bis-TFA salt]"
< 5,1.69,–,"CN(C)C1CCN(c2cccc3c2CCN(C(=O)c2cn(-c4cccc(Cl)c4F)nn2)C3C(=O)Nc2ccc(-c3nnn[nH]3)cc2)CC1 (stereo not drawn) [Example 105, N-(4-(1H-Tetrazol-5-yl)phenyl)-2-(1-(3-chloro-2-fluorophenyl)-1H-1,2,3-triazole-4-carbonyl)-5-(4-(dimethylamino)piperidin-1-yl)-1,2,3,4-tetrahydroisoquinoline-1-carboxamide, bis-TFA salt]"
< 5,7.58,–,"CN1CCC2(CCN(c3cccc4c3CCN(C(=O)c3cn(-c5cccc(Cl)c5F)nn3)C4C(=O)Nc3ccc(C(=O)O)cc3)CC2)C1=O (stereo not drawn) [Example 106, 4-(2-(1-(3-Chloro-2-fluorophenyl)-1H-1,2,3-triazole-4-carbonyl)-5-(2-methyl-1-oxo-2,8-diazaspiro[4.5]decan-8-yl)-1,2,3,4-tetrahydroisoquinoline-1-carboxamido)benzoic acid, TFA salt]"
< 5,12.5,–,"CN1CCC2(CCN(c3cccc4c3CCN(C(=O)c3cnn(-c5cccc(Cl)c5F)c3)C4C(=O)Nc3ccc(C(=O)O)cc3)CC2)C1=O (stereo not drawn) [Example 107, 4-(2-(1-(3-Chloro-2-fluorophenyl)-1H-pyrazole-4-carbonyl)-5-(2-methyl-1-oxo-2,8-diazaspiro[4.5]decan-8-yl)-1,2,3,4-tetrahydroisoquinoline-1-carboxamido)benzoic acid, TFA salt]"
48.8,50,–,"N#Cc1cccc2c1CCN(C(=O)c1cn(-c3cccc(Cl)c3F)nn1)C2C(=O)Nc1ccc(C(=O)O)cc1 (stereo not drawn) [Example 108, 4-(2-(1-(3-Chloro-2-fluorophenyl)-1H-1,2,3-triazole-4-carbonyl)-5-cyano-1,2,3,4-tetrahydroisoquinoline-1-carboxamido)benzoic acid]"
14.5,2.29,–,"NCc1cccc2c1CCN(C(=O)c1cn(-c3cccc(Cl)c3F)nn1)C2C(=O)Nc1ccc(C(=O)O)cc1 (stereo not drawn) [Example 109, 4-(5-(Aminomethyl)-2-(1-(3-chloro-2-fluorophenyl)-1H-1,2,3-triazole-4-carbonyl)-1,2,3,4-tetrahydroisoquinoline-1-carboxamido)benzoic acid, TFA salt]"
72.7,23,–,"O=C(O)c1ccc(NC(=O)C2c3cccc(Br)c3CCN2C(=O)c2cn(-c3cccc(Cl)c3F)nn2)cc1 (stereo not drawn) [Example 110, 4-(5-Bromo-2-(1-(3-chloro-2-fluorophenyl)-1H-1,2,3-triazole-4-carbonyl)-1,2,3,4-tetrahydroisoquinoline-1-carboxamido)benzoic acid]"
< 5,3.16,–,"O=C(O)c1ccc(NC(=O)C2c3cccc(OC4CCNCC4)c3CCN2C(=O)c2cn(-c3cccc(Cl)c3F)nn2)cc1 (stereo not drawn) [Example 112, 4-(2-(1-(3-Chloro-2-fluorophenyl)-1H-1,2,3-triazole-4-carbonyl)-5-(piperidin-4-yloxy)-1,2,3,4-tetrahydroisoquinoline-1-carboxamido)benzoic acid, TFA salt]"
–,11.9,< 5,"COCCOc1cccc2c1CCN(C(=O)c1cn(-c3cccc(Cl)c3F)nn1)C2C(=O)Nc1ccc(C(=O)O)cc1 (stereo not drawn) [Example 113, 4-(2-(1-(3-Chloro-2-fluorophenyl)-1H-1,2,3-triazole-4-carbonyl)-5-(2-methoxyethoxy)-1,2,3,4-tetrahydroisoquinoline-1-carboxamido)benzoic acid]"
